Measurements from PMC3175392, “Noninvasive In Vivo Quantification of Neutrophil Elastase Activity in Acute Experimental Mouse Lung Injury” (International Journal of Molecular Imaging, 2011).
Counter-ions that a name gives are not always drawn.

Assays:
[1] = system: mouse NE; experiment: In vitro activation and protease selectivity of NE680 (mouse NE versus related enzymes); format: biochemical; conditions: at 5 h, 0.5 μM NE680, 0.05 μM enzyme, room temperature, optimized buffer for each enzyme
Procedure: Activation and protease selectivity of NE680 were determined with NE and closely related enzymes including PR3, Cat G, Cat B, and MMP-9. The assays were performed with 0.05 μM of enzyme and 0.5 μM NE680 in the optimized buffer and pH for each enzyme. Human NE was purchased from Innovative Research (Novi, MI), recombinant mouse NE, mouse Cat B, and active mouse Cat C from R and D Systems (Minneapolis, MN), human neutrophil PR3 from Athens Research and Technology (Athens, GA), and human neutrophil Cat G and recombinant human MMP-9 from BIOMOL International (Plymouth Meeting, PA). The reaction buffers were as follows: for human NE, 100 mM Tris (pH 7.5); for mouse NE, 50 mM Tris (pH 7.5), 1 M NaCl, 0.05% Brij-35; for Cat B, 25 mM MES (pH 5.0), 0.5 mM DTT (preactivation in 25 mM MES pH 5.0, 5 mM DTT for 15 min at room temperature); for MMP-9, 50 mM Tris (pH 7.5), 10 mM CaCl2, 150 mM NaCl, 0.05% Brij 35; for Cat G, 100 mM Tris (pH 7.5), 1.6 M NaCl; for human PR3, 100 mM Tris (pH 7.5), 500 mM NaCl. Mouse NE was activated by active mouse Cat C in 50 mM MES, 50 mM NaCl, pH5.5 at 37°C for 2 h. Reactions were carried out at room temperature in 250 μL in 96 well plates with black sides and bottom. All the reactions were monitored at various time points at excitation/emission wavelengths of 663/690 nm with a cutoff at 665 nm using a fluorescence plate reader (Molecular Devices, San Leandro, CA). The released fluorescence is shown after subtracting background fluorescence of the agent without enzyme.

[2] = Mouse plasma stability; format: in vitro ADME; conditions: normal mouse plasma diluted 1:4 in PBS pH 7.40 with 1 mM EDTA, 37°C, 24 h; HPLC; data not shown
Procedure: The agent was incubated in normal mouse plasma (Innovative Research, Novi, MI) diluted 1 : 4 in PBS, pH 7.40 with 1 mM EDTA, at 37°C for 24 h. The stability of the agent was analyzed by HPLC.
(§1) HPLC analyses were performed on a Waters model 2695 (Waters Corporation, Milford, MA). The PDA, Waters model 2998, was set to scan from 225 nm to 800 nm. The wavelength corresponding to the absorbance maximum of the fluorophore, 675 nm, was extracted from the PDA trace. The fluorescence spectrophotometer was set to an excitation wavelength of 675 nm and emission was monitored at 693 nm. Samples were analyzed on a C4, 300 Å, 5 μm, 150 × 4.6 mm HPLC column (Phenomenex, Torrance, CA). The aqueous mobile phase contained 25 mM ammonium formate, pH 8.5. Samples were eluted with acetonitrile at a flow rate of 1 mL/min. A gradient of 15% to 85% organic provided sufficient resolution. Standards were prepared with NE680 (0–2.5 μM) in mouse plasma. Standard curves had correlation coefficients >0.98.

[3] = target: T1, NE (Mus musculus, UniProt Q3UP87); experiment: In vivo FMT imaging of NE680 activation in LPS/fMLP acute lung injury
T1 construct: from tissue; host or cells: lung of LPS/fMLP-challenged CD-1 mice (frozen sections or in vivo)
T1 sequence (Q3UP87 27-265): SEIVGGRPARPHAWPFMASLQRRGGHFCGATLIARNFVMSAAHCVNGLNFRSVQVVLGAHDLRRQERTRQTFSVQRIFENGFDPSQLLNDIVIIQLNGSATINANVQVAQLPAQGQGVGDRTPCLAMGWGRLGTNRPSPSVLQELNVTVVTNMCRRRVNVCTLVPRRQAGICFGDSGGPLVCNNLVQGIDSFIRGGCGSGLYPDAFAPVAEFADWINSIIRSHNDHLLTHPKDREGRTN
Source text: Acute lung inflammation was induced in mice according to published protocols with slight modifications. Male CD-1 mice were purchased from Charles River Laboratories (Wilmington, MA) and used when they reached 8–10 weeks of age. Mice were housed in environmentally controlled specific-pathogen-free conditions with water and low-fluorescence mouse chow (Harlan Teklad, Madison, WI). All animal experimental procedures were approved by PerkinElmer's Institutional Animal Care and Use Committee and were in accordance with veterinarian requirements. On day 1, mice were challenged intranasally (i.n.) with 100 μg of LPS (E. coli 111 : B4, Sigma, St. Louis, MO) solubilized in 40 μL PBS or PBS only. Eighteen hours later, mice received an intranasal instillation of the chemotactic peptide N-formyl-met-leu-phe (fMLP, Sigma, St. Louis, MO) at 200 nM in 40 μL PBS together with 4 nmoles of NE680.
For in vivo imaging, mice were first depilated using Nair and placed in a fluorescence molecular tomography (FMT) 2500 system (PerkinElmer, Boston, MA) imaging chamber to which is delivered a controlled amount of isoflurane/oxygen mixture keeping the mice anesthetized. Three-dimensional regions of interest (ROIs) were drawn around the chest area applying a universal threshold, equal to 40% of the mean concentration value of fluorescence in the LPS/fMLP mice (in nM). The total amount (in picomole) of fluorochrome was automatically calculated relative to internal standards generated with known concentrations of the appropriate fluorochrome. For each study, the mean fluorescence of the LPS/fMLP group was equaled to 100%, and then each mouse in that study was normalized accordingly. Shown are the grouped results of 3 studies, as the percentage of LPS/fMLP Lung Fluorescence (means ± S.E.M.).

[4] = target: T1, NE; experiment: NE680 activation ex vivo in lung sections; conditions: 1 μM NE680, 37°C, 5 h
Source text: To validate the specificity of NE680 activation by NE present in lungs, mice with lung inflammation and control healthy mice (which had not received NE680) were euthanized by CO2 inhalation and lungs were removed and snap frozen in OCT. […] Fluorescence, as a measure of agent activation, was captured under fluorescence microscopy using appropriate filters (Zeiss Axioskop 2 MOT Plus). DAPI was used as a nuclear counterstain.

[5] = Fluorescence biodistribution in excised organs; format: in vivo, mouse; conditions: organs excised from 3 LPS/fMLP mice immediately after imaging, reflectance mode, mean fluorescence counts/energy
Procedure: Immediately following imaging, a cohort of mice were sacrificed (n = 3 per group), organs excised, and imaged in reflectance mode using the FMT 2500. The mean fluorescence intensity was measured after drawing an ROI around each organ. Data are expressed as mean fluorescence (in counts/energy) reported as means ± S.E.M.

[6] = Pharmacokinetics in CD-1 mice after i.v. injection; format: in vivo, mouse; conditions: female CD-1 mice, 2 nmol i.v. bolus in PBS, n = 3 mice per time point, HPLC of plasma; data not shown
Procedure: Twenty-four female retired breeder CD-1 mice (age 12–16 weeks, Charles River Laboratories, Wilmington, MA) received a bolus intravenous (i.v.) injection of NE680 (2 nmol in PBS). Terminal blood samples (n = 3 mice per time point) were collected by cardiac puncture from each mouse (following carbon dioxide asphyxiation). Plasma was collected by centrifugation (15,000 rpm for 10 min at 4°C) in EDTA-containing tubes. Aliquots (50 μL) of each plasma sample were placed in Eppendorf tubes. Cold methanol (150 μL) was added and the tubes were vortexed followed by centrifugation at 12,000 rpm and 4°C for 10 minutes. Approximately 110 μL of the supernatants were transferred to HPLC vials for analysis. Studies were conducted in accordance with and approved by PerkinElmer's IACUC Institutional Animal Care and Use Committee guidelines.
as §1, with “Samples were eluted with acetonitrile at a flow rate of 1 mL/min. A gradient of 15% to 85% organic provided sufficient resolution. Standards were prepared with NE680 (0–2.5 μM) in mouse plasma. Standard curves had correlation coefficients >0.98.” left out

[7] = system: neutrophil influx; experiment: Lung histology (H and E) after in vivo imaging, neutrophil influx; set-up: species or system mouse; conditions: single treatment 5 mg/kg i.n. 18 h after LPS; H and E sections
[8] = target: T2, human PR3 (Homo sapiens, UniProt P24158); experiment: Inhibition of NE680 cleavage by human PR3; format: biochemical; conditions: NE680 0.5 μM as substrate; 30 min preincubation of enzyme with inhibitor, room temperature; read-out: IC50 on NE680 activation by human PR3
T2 construct: human neutrophil PR3 from Athens Research and Technology (Athens, GA); purchased Athens Research and Technology (Athens, GA); host or cells: human neutrophils
T2 sequence (P24158 28-256): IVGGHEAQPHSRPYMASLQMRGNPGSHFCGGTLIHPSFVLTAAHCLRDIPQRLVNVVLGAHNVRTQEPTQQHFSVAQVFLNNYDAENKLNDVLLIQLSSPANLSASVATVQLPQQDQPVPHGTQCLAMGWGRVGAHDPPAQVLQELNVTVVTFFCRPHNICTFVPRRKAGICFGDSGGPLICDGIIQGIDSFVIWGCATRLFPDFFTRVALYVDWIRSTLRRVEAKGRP
Procedure: Activation and protease selectivity of NE680 were determined with NE and closely related enzymes including PR3, Cat G, Cat B, and MMP-9. The assays were performed with 0.05 μM of enzyme and 0.5 μM NE680 in the optimized buffer and pH for each enzyme. Human NE was purchased from Innovative Research (Novi, MI), recombinant mouse NE, mouse Cat B, and active mouse Cat C from R and D Systems (Minneapolis, MN), human neutrophil PR3 from Athens Research and Technology (Athens, GA), and human neutrophil Cat G and recombinant human MMP-9 from BIOMOL International (Plymouth Meeting, PA). […] All the reactions were monitored at various time points at excitation/emission wavelengths of 663/690 nm with a cutoff at 665 nm using a fluorescence plate reader (Molecular Devices, San Leandro, CA). The released fluorescence is shown after subtracting background fluorescence of the agent without enzyme.
The IC50 against human NE and human PR3 were determined as described above using NE680 (0.5 μM). […]

[9] = 10 μm frozen sections, fluorescence microscopy

cleavage by mouse NE relative to Cat G ([1]; human Cat G) [fold] | cleavage by mouse NE relative to MMP-9 ([1]; human MMP-9) [fold] | cleavage by mouse NE relative to Cat B ([1]; mouse Cat B) | fluorescence (agent activation) in lung sections from control mice [4, 9] | fluorescence (agent activation) in lung sections from mice with ALI [4, 9] | suppression of NE680 activation in ALI lung sections ([4]; sivelestat 40 nM) | suppression of NE680 activation in ALI lung sections ([4]; sivelestat 0.4 and 4 μM) | IC50 [8] [nM] | Molecule | stability in mouse plasma [2] | average total fluorescence per lung ([3]; LPS/fMLP mice) | magnitude of signal in positive control animals across studies ([3]; LPS/fMLP mice, range between studies) | average total fluorescence per lung ([3]; control mice) [pmol fluorescence/lung] | median concentration of lung fluorescence ([3]; healthy controls, n = 12, 4 nmoles NE680 i.n., FMT 5 h later) [nM] | median concentration of lung fluorescence ([3]; mice with LPS/fMLP ALI, n = 16, 4 nmoles NE680 i.n., FMT 5 h later) [nM] | NE680 signal in lungs relative to all other tissues [5] | half-life in plasma (t 1/2) [6] [h] | effect on neutrophil influx into the lung [7] | median concentration of lung fluorescence ([3]; ALI mice treated with sivelestat 5 mg/kg i.n. 15 min before fMLP and NE680, n = 12) [nM] | lung fluorescence as percentage of LPS/fMLP group ([3]; ALI mice treated with sivelestat 5 mg/kg i.n. 15 min before fMLP and NE680, mean ± S.E.M., n = 12, P = 0.0144) [%]
> 10 | > 30 | over 250 fold | little or no apparent fluorescence | strong fluorescence |  |  |  | PMAVVQSVP [NE680] | optically stable and remains quenched | ~ 100 pmol fluorescence/lung | 30–190 pmols fluorescence/lung | < 5 | 0 | 164 | 30- to 170 fold | 3 |  |  | 
 |  |  |  |  | significantly inhibited | almost completely blocking | 700 | CC(C)(C)C(=O)Oc1ccc(S(=O)(=O)Nc2ccccc2C(=O)NCC(=O)O)cc1 [sivelestat, N-{2-[({4-[(2,2-dimethylpropanoyl)oxy]phenyl}sulfonyl)amino]benzoyl} glycine sodium salt, reference compound] |  |  |  |  |  |  |  |  | not inhibited | 73 | 53.57 ± 10.34
